The species named for this test is Rattus norvegicus. The test is described as follows: Antiproliferative activity against rat smooth muscle cell (SMC) expressed as relative activity compared to heparin; ri is relative inhibitory activity. It is filed as functional.

Our source for the Relative inhibitory activity values is ChEMBL document CHEMBL1128902, “Selectively deoxygenated sulfated tetrasaccharides as probes for the investigation of smooth muscle cell antiproliferative activity” (1996).

`C[C@@H]1O[C@H](O[C@H]2[C@H](O)[C@H](O)[C@H](O[C@H]3[C@H](O)[C@H](O)[C@@H](O[C@H]4O[C@H](CO)[C@@H](O)[C@@H](O)[C@@H]4O)O[C@H]3CO)O[C@H]2CO)[C@@H](O)[C@@H](O)[C@@H]1O`: the Relative inhibitory activity is given as 0.6.

`OC[C@H]1O[C@H](O[C@H]2O[C@H](CO)[C@@H](O[C@H]3O[C@H](CO)[C@@H](O[C@H]4O[C@H](CO)[C@@H](O)[C@H](O)[C@H]4O)[C@H](O)[C@H]3O)[C@H](O)[C@H]2O)[C@H](O)[C@@H](O)[C@@H]1O` registered a Relative inhibitory activity of 0.9.
